These results are taken from ChEMBL document CHEMBL3227973, “Synthesis and platelet aggregation inhibitory activity of 6-isobutyl-alpha-methyl-3-pyridineacetic acid” (1979).

Active and inactive are the calls of the source. No cut-off for these calls is given here.

For assay [1], the species on record is Mus musculus. Briefly: Ex vivo antiplatelet activity in mouse assessed as inhibition of collagen-induced platelet aggregation at equivalent dose of ibuprofen after 1 hr.
In assay [2] the test system is Rattus norvegicus. As to the kind of experiment: Ex vivo antiplatelet activity in Sprague-Dawley rat assessed as inhibition of collagen-induced platelet aggregation at 10 mg/kg, po after 1 hr. In kind it is functional.
Assay [3] deals with Rattus norvegicus. Briefly: Ex vivo antiplatelet activity in Sprague-Dawley rat assessed as inhibition of collagen-induced platelet aggregation at 40 mg/kg, po after 1 hr. In kind it is functional.
The test system of assay [4] is Rattus norvegicus. Briefly: Ex vivo antiplatelet activity in Sprague-Dawley rat assessed as inhibition of collagen-induced platelet aggregation at 50 mg/kg, po after 1 hr. In kind it is functional.

For the compound `CC(C)Cc1ccc(C(C)C(=O)O)c(Cl)n1` (stereo not given), the inhibition entry in assay [1] is “inactive”. As to `CC(C)Cc1ccc(C(C)C(=O)O)cc1` (stereo not given) [IBUPROFEN], the inhibition in vivo – broadly, the share of the control response that was lost under treatment – at 10 mg/kg in assay [2] is 10%. Besides, the inhibition in vivo at 40 mg/kg in assay [3] was determined as 88%. In the case of `CC(C)Cc1ccc(C(C)C(=O)O)cn1` (stereo not given), the inhibition in vivo at 10 mg/kg in assay [2] turned out to be 33%. In addition, the inhibition in vivo at 50 mg/kg in assay [4] turned out to be 65%.
